For one series, the target named is hCA II (Homo sapiens, UniProt P00918). The series is described as follows: stopped-flow CO2 hydrase assay, hCA II. As to conditions: read-out: Ki hCA II; stopped-flow technique, mean from three different assays.
For a further series, the target named is hCA IX (Homo sapiens, UniProt Q16790). The series is described as follows: stopped-flow CO2 hydrase assay, hCA IX. As to conditions: read-out: Ki hCA IX; stopped-flow technique, mean from three different assays.
In another series the target is hCA I (Homo sapiens, UniProt P00915). Description: stopped-flow CO2 hydrase assay, hCA I. As to conditions: read-out: Ki hCA I; stopped-flow technique, mean from three different assays.

The structures appear in SMILES notation. Structures can show the parent of a compound that is named as a salt.

Sequence of hCA I (P00915 whole entry): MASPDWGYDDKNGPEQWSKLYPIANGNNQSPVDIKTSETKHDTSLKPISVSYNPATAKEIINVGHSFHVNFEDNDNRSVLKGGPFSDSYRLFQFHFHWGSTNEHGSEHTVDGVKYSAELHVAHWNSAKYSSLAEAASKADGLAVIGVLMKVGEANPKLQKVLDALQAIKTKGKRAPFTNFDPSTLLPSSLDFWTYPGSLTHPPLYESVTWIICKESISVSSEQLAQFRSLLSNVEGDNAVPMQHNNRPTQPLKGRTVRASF
Excerpt for hCA II: (§1) An SX.18MV-R Applied Photophysics (Oxford, U.K.) stopped-flow instrument has been used to assay the catalytic/inhibition of various CA isozymes.[38] […] The inhibition constants were obtained by nonlinear least-squares methods using the Cheng–Prusoff equation, as reported earlier,[32] and represent the mean from at least three different determinations.
Excerpt for hCA IX: as §1

In turn, `COc1cc(C(=O)OCCCCCCCN(CCCOC(=O)c2cc(OC)c(OC)c(OC)c2)CCCOc2ccc3ccc(=O)oc3c2)cc(OC)c1OC` (as salt: hydrochloride) [Compound 23, 7-((3-((2-Oxo-2H-chromen-7-yl)oxy)propyl)(3-((3,4,5-trimethoxybenzoyl)oxy)propyl)amino)heptyl 3,4,5-Trimethoxybenzoate] yielded a melting point of 74 to 77 °C. Same read-out and setting: as for `COc1cc(/C=C/C(=O)OCCCCCN(CCCOC(=O)c2c3ccccc3cc3ccccc23)CCCOc2ccc3ccc(=O)oc3c2)cc(OC)c1OC` (as salt: hydrochloride) [Compound 3, (E)-3-((3-((2-Oxo-2H-chromen-7-yl)oxy)propyl)(5-((3-(3,4,5-trimethoxyphenyl)acryloyl)oxy)pentyl)amino)propyl Anthracene-9-carboxylate], the figure is 94 to 97 °C; as for `COc1cc(/C=C/C(=O)OCCCCCCCN(CCCOC(=O)c2cc(OC)c(OC)c(OC)c2)CCCOc2ccc3ccc(=O)oc3c2)cc(OC)c1OC` (as salt: hydrochloride) [Compound 20, (E)-3-((3-((2-Oxo-2H-chromen-7-yl)oxy)propyl)(7-((3-(3,4,5-trimethoxyphenyl)acryloyl)oxy)heptyl)amino)propyl 3,4,5-Trimethoxybenzoate], 84 to 87 °C.

In turn, `COc1cc(/C=C/C(=O)OCCCCCCN(CCCOC(=O)c2c3ccccc3cc3ccccc23)CCCOc2ccc3ccc(=O)oc3c2)cc(OC)c1OC` (as salt: hydrochloride) [Compound 12, (E)-3-((3-((2-Oxo-2H-chromen-7-yl)oxy)propyl)(6-((3-(3,4,5-trimethoxyphenyl)acryloyl)oxy)hexyl)amino)propyl Anthracene-9-carboxylate] displayed a melting point of 99 to 102 °C. `COc1cc(/C=C/C(=O)OCCCN(CCCCCCOC(=O)c2cc(OC)c(OC)c(OC)c2)CCCOc2ccc3ccc(=O)oc3c2)cc(OC)c1OC` (as salt: hydrochloride) [Compound 13, (E)-6-((3-((2-Oxo-2H-chromen-7-yl)oxy)propyl)(3-((3-(3,4,5-trimethoxyphenyl)acryloyl)oxy)propyl)amino)hexyl 3,4,5-Trimethoxybenzoate] came in with a melting point of 78 to 81 °C. On to `COc1cc(/C=C/C(=O)OCCCN(CCCCCOC(=O)c2cc(OC)c(OC)c(OC)c2)CCCOc2ccc3ccc(=O)oc3c2)cc(OC)c1OC` (as salt: hydrochloride) [Compound 4, (E)-5-((3-((2-Oxo-2H-chromen-7-yl)oxy)propyl)(3-((3-(3,4,5-trimethoxyphenyl)acryloyl)oxy)propyl)amino)pentyl 3,4,5-Trimethoxybenzoate], for which the melting point is 74 to 77 °C. `COc1cc(/C=C/C(=O)OCCCN(CCCCCOC(=O)c2c3ccccc3cc3ccccc23)CCCOc2ccc3ccc(=O)oc3c2)cc(OC)c1OC` (as salt: hydrochloride) [Compound 7, (E)-5-((3-((2-Oxo-2H-chromen-7-yl)oxy)propyl)(3-((3-(3,4,5-trimethoxyphenyl)acryloyl)oxy)propyl)amino)pentyl Anthracene-9-carboxylate] yielded a melting point of 92 to 95 °C. Compound `COc1cc(/C=C/C(=O)OCCCCCCCN(CCCOC(=O)/C=C/c2cc(OC)c(OC)c(OC)c2)CCCOc2ccc3ccc(=O)oc3c2)cc(OC)c1OC` (as salt: hydrochloride) [Compound 19, (E)-7-((3-((2-Oxo-2H-chromen-7-yl)oxy)propyl)(3-(((E)-3-(3,4,5-trimethoxyphenyl)acryloyl)oxy)propyl)amino)heptyl 3-(3,4,5-Trimethoxyphenyl)acrylate] had a melting point of 90 to 92 °C. As to `COc1cc(/C=C/C(=O)OCCCN(CCCCCCCOC(=O)c2cc(OC)c(OC)c(OC)c2)CCCOc2ccc3ccc(=O)oc3c2)cc(OC)c1OC` (as salt: hydrochloride) [Compound 22, (E)-7-((3-((2-Oxo-2H-chromen-7-yl)oxy)propyl)(3-((3-(3,4,5-trimethoxyphenyl)acryloyl)oxy)propyl)amino)heptyl 3,4,5-Trimethoxybenzoate], the melting point is 73 to 76 °C.

`COc1cc(C(=O)OCCCCCCN(CCCOC(=O)c2c3ccccc3cc3ccccc23)CCCOc2ccc3ccc(=O)oc3c2)cc(OC)c1OC` (as salt: hydrochloride) [Compound 15, 3-((3-((2-Oxo-2H-chromen-7-yl)oxy)propyl)(6-((3,4,5-trimethoxybenzoyl)oxy)hexyl)amino)propyl Anthracene-9-carboxylate] displayed a melting point of 148 to 151 °C. Consider `COc1cc(/C=C/C(=O)OCCCCCCCN(CCCOC(=O)c2c3ccccc3cc3ccccc23)CCCOc2ccc3ccc(=O)oc3c2)cc(OC)c1OC` (as salt: hydrochloride) [Compound 21, (E)-3-((3-((2-Oxo-2H-chromen-7-yl)oxy)propyl)(7-((3-(3,4,5-trimethoxyphenyl)acryloyl)oxy)heptyl)amino)propyl Anthracene-9-carboxylate], for which the melting point lay within 100 to 102 °C. The same measure, in the same setting: as for `COc1cc(C(=O)OCCCCCN(CCCOC(=O)c2c3ccccc3cc3ccccc23)CCCOc2ccc3ccc(=O)oc3c2)cc(OC)c1OC` (as salt: hydrochloride) [Compound 6, 3-((3-((2-Oxo-2H-chromen-7-yl)oxy)propyl)(5-((3,4,5-trimethoxybenzoyl)oxy)pentyl)amino)propyl Anthracene-9-carboxylate], the figure is 114 to 117 °C. `COc1cc(C(=O)OCCCCCN(CCCOC(=O)c2cc(OC)c(OC)c(OC)c2)CCCOc2ccc3ccc(=O)oc3c2)cc(OC)c1OC` (as salt: hydrochloride) [Compound 5, 5-((3-((2-Oxo-2H-chromen-7-yl)oxy)propyl)(3-((3,4,5-trimethoxybenzoyl)oxy)propyl)amino)pentyl 3,4,5-Trimethoxybenzoate] displayed a melting point of 84 to 87 °C. The same measure, in the same setting: for `COc1cc(/C=C/C(=O)OCCCCCN(CCCOC(=O)c2cc(OC)c(OC)c(OC)c2)CCCOc2ccc3ccc(=O)oc3c2)cc(OC)c1OC` (as salt: hydrochloride) [Compound 2, (E)-3-((3-((2-Oxo-2H-chromen-7-yl)oxy)propyl)(5-((3-(3,4,5-trimethoxyphenyl)acryloyl)oxy)pentyl)amino)propyl 3,4,5-Trimethoxybenzoate] the value was 128 to 131 °C; for `COc1cc(C(=O)OCCCN(CCCCCCOC(=O)c2c3ccccc3cc3ccccc23)CCCOc2ccc3ccc(=O)oc3c2)cc(OC)c1OC` (as salt: hydrochloride) [Compound 17, 6-((3-((2-Oxo-2H-chromen-7-yl)oxy)propyl)(3-((3,4,5-trimethoxybenzoyl)oxy)propyl)amino)hexyl Anthracene-9-carboxylate], 87 to 90 °C. Regarding `O=C(OCCCCCN(CCCOC(=O)c1c2ccccc2cc2ccccc12)CCCOc1ccc2ccc(=O)oc2c1)c1c2ccccc2cc2ccccc12` (as salt: hydrochloride) [Compound 9, 3-((5-((Anthracene-9-carbonyl)oxy)pentyl)(3-((2-oxo-2H-chromen-7-yl)oxy)propyl)amino)propyl Anthracene-9-carboxylate], the melting point was 118 to 121 °C.

With `COc1cc(/C=C/C(=O)OCCCCCN(CCCOC(=O)/C=C/c2cc(OC)c(OC)c(OC)c2)CCCOc2ccc3ccc(=O)oc3c2)cc(OC)c1OC` (as salt: hydrochloride) [Compound 1, (E)-5-((3-((2-Oxo-2H-chromen-7-yl)oxy)propyl)(3-(((E)-3-(3,4,5-trimethoxyphenyl)acryloyl)oxy)propyl)amino)pentyl 3-(3,4,5-Trimethoxyphenyl)acrylate], the melting point lay in the range of 81 to 84 °C. Take `COc1cc(/C=C/C(=O)OCCCCCCN(CCCOC(=O)c2cc(OC)c(OC)c(OC)c2)CCCOc2ccc3ccc(=O)oc3c2)cc(OC)c1OC` (as salt: hydrochloride) [Compound 11, (E)-3-((3-((2-Oxo-2H-chromen-7-yl)oxy)propyl)(6-((3-(3,4,5-trimethoxyphenyl)acryloyl)oxy)hexyl)amino)propyl 3,4,5-Trimethoxybenzoate]: the melting point lay within 71 to 74 °C. Regarding `COc1cc(C(=O)OCCCN(CCCCCCCOC(=O)c2c3ccccc3cc3ccccc23)CCCOc2ccc3ccc(=O)oc3c2)cc(OC)c1OC` [Compound 26, 7-((3-((2-Oxo-2H-chromen-7-yl)oxy)propyl)(3-((3,4,5-trimethoxybenzoyl)oxy)propyl)amino)heptyl Anthracene-9-carboxylate], the Ki on hCA II is greater than 10 µM; at hCA IX, 0.0413 µM; on hCA I it was greater than 10 µM. Consider `COc1cc(/C=C/C(=O)OCCCN(CCCCCCCOC(=O)c2c3ccccc3cc3ccccc23)CCCOc2ccc3ccc(=O)oc3c2)cc(OC)c1OC` [Compound 25, (E)-7-((3-((2-Oxo-2H-chromen-7-yl)oxy)propyl)(3-((3-(3,4,5-trimethoxyphenyl)acryloyl)oxy)propyl)amino)heptyl Anthracene-9-carboxylate], for which the Ki is greater than 10 µM at hCA II, 0.0711 µM on hCA IX and greater than 10 µM at hCA I. In the case of `COc1cc(C(=O)OCCCN(CCCCCCOC(=O)c2c3ccccc3cc3ccccc23)CCCOc2ccc3ccc(=O)oc3c2)cc(OC)c1OC` [Compound 17, 6-((3-((2-Oxo-2H-chromen-7-yl)oxy)propyl)(3-((3,4,5-trimethoxybenzoyl)oxy)propyl)amino)hexyl Anthracene-9-carboxylate], the Ki on hCA II is greater than 10 µM; on hCA IX, 0.123 µM; on hCA I, greater than 10 µM. For the compound `COc1cc(C(=O)OCCCCCCN(CCCOC(=O)c2c3ccccc3cc3ccccc23)CCCOc2ccc3ccc(=O)oc3c2)cc(OC)c1OC` [Compound 15, 3-((3-((2-Oxo-2H-chromen-7-yl)oxy)propyl)(6-((3,4,5-trimethoxybenzoyl)oxy)hexyl)amino)propyl Anthracene-9-carboxylate], the Ki on hCA II is greater than 10 µM; at hCA IX, 0.0541 µM; at hCA I, greater than 10 µM.
